Tests used:
Adenosine receptor A2a [1] = target: T1, Adenosine receptor A2a (Homo sapiens, UniProt P29274); test: biochemical
Adenosine receptor A1 = target: T2, Adenosine receptor A1 (Homo sapiens, UniProt P30542); test: Agonist activity at human adenosine A1 receptor expressed in CHO cells by GTPPgammaS binding assay; assay type: cell-based
T2 sequence (P30542 whole entry): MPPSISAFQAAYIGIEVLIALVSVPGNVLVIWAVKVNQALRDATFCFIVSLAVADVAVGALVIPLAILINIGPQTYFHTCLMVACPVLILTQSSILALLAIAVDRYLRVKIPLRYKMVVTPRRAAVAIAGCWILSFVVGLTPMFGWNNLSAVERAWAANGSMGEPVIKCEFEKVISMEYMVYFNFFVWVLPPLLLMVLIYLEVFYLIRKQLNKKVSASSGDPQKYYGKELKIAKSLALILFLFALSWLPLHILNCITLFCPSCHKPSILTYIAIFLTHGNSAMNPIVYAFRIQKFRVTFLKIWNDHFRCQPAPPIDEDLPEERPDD

Adenosine receptor A3 = target: T3, Adenosine receptor A3 (Homo sapiens, UniProt P0DMS8); test: Agonist activity at human adenosine A3 receptor expressed in CHO cells by GTPPgammaS binding assay; assay type: cell-based
T3 sequence (P0DMS8 whole entry): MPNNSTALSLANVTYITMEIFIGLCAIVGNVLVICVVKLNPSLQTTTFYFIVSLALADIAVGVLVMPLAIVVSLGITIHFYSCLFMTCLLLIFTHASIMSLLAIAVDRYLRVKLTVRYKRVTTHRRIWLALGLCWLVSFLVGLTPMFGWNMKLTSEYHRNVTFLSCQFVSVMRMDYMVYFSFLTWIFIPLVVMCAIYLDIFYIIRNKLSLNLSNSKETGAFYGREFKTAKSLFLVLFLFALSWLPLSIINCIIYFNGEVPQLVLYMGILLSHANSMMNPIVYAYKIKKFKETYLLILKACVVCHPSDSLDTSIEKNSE

Adenosine receptor A2a [2] = target: T1, Adenosine receptor A2a
Description: Agonist activity at adenosine A2A receptor in human neutrophils assessed as inhibition of fMLP-induced reactive oxygen species release by chemiluminescence assay

[3] = target: T4, Adenosine receptor A3 (Homo sapiens) (UniProt P0DMS8); test: Partial agonist activity at human adenosine A3 receptor expressed in CHO cells assessed as I-AB-MECA-induced GTPPgammaS binding response; assay type: cell-based
T4 sequence (whole entry): T3 sequence (P0DMS8 whole entry)

Adenosine receptor A2b = target: T5, Adenosine receptor A2b (Homo sapiens, UniProt P29275)
T5 sequence (P29275 whole entry): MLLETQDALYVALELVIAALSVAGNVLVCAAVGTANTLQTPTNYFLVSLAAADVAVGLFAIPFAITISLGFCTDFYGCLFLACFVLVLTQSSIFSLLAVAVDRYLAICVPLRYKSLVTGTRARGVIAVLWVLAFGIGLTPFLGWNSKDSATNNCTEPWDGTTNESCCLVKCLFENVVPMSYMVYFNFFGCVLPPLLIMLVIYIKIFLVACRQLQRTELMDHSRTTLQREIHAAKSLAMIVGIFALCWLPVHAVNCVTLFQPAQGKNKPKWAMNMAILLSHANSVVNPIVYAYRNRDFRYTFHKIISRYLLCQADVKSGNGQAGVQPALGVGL
Description: Agonist activity at human adenosine A2B receptor expressed in CHO cells assessed as effect on cAMP production by luciferase reporter gene assay

[4] = target: T4, Adenosine receptor A3 (Homo sapiens); test: Antagonist activity at human adenosine A3 receptor expressed in CHO cells assessed as I-AB-MECA-induced GTPPgammaS binding response; assay type: functional, cell-based; parameters: concentration or dose not given beside the values
PBMC [5] = test: Antiinflammatory activity in human PBMC assessed as inhibition of LPS-induced TNFalpha production after 20 hrs by ELISA; assay type: functional, cell-based
PBMC [6] = test: Antiinflammatory activity in rat PBMC assessed as inhibition of LPS-induced TNFalpha production after 20 hrs by ELISA

T1 sequence (P29274 whole entry): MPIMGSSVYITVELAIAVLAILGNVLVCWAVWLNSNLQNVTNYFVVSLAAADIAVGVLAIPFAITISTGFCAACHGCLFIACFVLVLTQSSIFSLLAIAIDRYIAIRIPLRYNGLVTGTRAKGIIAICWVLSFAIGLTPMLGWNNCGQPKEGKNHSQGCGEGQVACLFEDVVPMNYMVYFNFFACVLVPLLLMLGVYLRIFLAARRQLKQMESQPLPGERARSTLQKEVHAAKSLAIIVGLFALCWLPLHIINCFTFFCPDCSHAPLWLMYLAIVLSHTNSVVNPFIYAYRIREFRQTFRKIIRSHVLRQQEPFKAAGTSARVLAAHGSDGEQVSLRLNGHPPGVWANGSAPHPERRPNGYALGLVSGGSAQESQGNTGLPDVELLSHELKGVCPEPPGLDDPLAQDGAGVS

SMILES | Ki (Adenosine receptor A2a [1]) | EC50 (Adenosine receptor A1) | EC50 (Adenosine receptor A3) | IC50 (Adenosine receptor A2a [2]) | Activity [3] | EC50 (Adenosine receptor A2b) | Activity [4] | IC50 (PBMC [5]) | IC50 (PBMC [6])
Cc1cnn([C@H]2C[C@@H](n3cnc4c(N)nc(N[C@H](CO)Cc5ccccc5)nc43)[C@H](O)[C@@H]2O)c1 | 229 nM | > 10000 nM | 449 nM | 56 nM | – | > 10000 nM | > 50% | – | –
Nc1nc(N[C@H](CO)Cc2ccccc2)nc2c1ncn2[C@@H]1C[C@H](n2cc(-c3ccccc3)cn2)[C@@H](O)[C@H]1O | > 10000 nM | – | – | – | – | – | – | – | –
CCn1nnc([C@H]2O[C@@H](n3cnc4c(N)nc(N[C@H](CO)Cc5ccccc5)nc43)[C@H](O)[C@@H]2O)n1 [GW-328267] | – | 882 nM | – | 0.4 nM | – | – | > 50% | 1.3 nM | 2.9 nM
CCNC(=O)[C@H]1O[C@@H](n2cnc3c(N)ncnc32)[C@H](O)[C@@H]1O [NECA] | – | – | – | – | – | – | – | 40 nM | 187 nM
CCCCC#Cc1nc(N)c2ncn([C@@H]3C[C@H](NC(=O)CC)[C@@H](O)[C@H]3O)c2n1 | 18 nM | > 10000 nM | 105 nM | 12 nM | – | > 10000 nM | – | – | –
CC(C)n1cnc(CCNc2nc(NCC(c3ccccc3)c3ccccc3)c3ncn([C@@H]4C[C@H](NC(=O)CCc5ccccc5)[C@@H](O)[C@H]4O)c3n2)c1 | 5470 nM | – | – | – | – | – | – | – | –
CC(C)n1cnc(CCNc2nc(NCC(c3ccccc3)c3ccccc3)c3ncn([C@@H]4C[C@H](NC(=O)C(C)(C)C)[C@@H](O)[C@H]4O)c3n2)c1 | 382 nM | – | – | 542 nM | – | – | – | – | –
CCc1cnn([C@H]2C[C@@H](n3cnc4c(N)nc(N[C@H](CO)Cc5ccccc5)nc43)[C@H](O)[C@@H]2O)c1 | 182 nM | > 10000 nM | 776 nM | 62 nM | – | > 10000 nM | > 50% | – | –
CC(C)n1cnc(CCNc2nc(NCC(c3ccccc3)c3ccccc3)c3ncn([C@@H]4C[C@H](NC(=O)Cc5ccccc5)[C@@H](O)[C@H]4O)c3n2)c1 | 1670 nM | – | – | – | – | – | – | – | –
CCNC(=O)[C@H]1O[C@@H](n2cnc3c(N)nc(NCCc4ccc(CCC(=O)O)cc4)nc32)[C@H](O)[C@@H]1O [CGS-21680] | – | – | – | – | – | – | – | 58 nM | 83 nM
CCC(=O)N[C@H]1C[C@@H](n2cnc3c(NC(CC)CC)nc(NCCc4cn(CC)cn4)nc32)[C@H](O)[C@@H]1O | 5.4 nM | > 10000 nM | 1640 nM | 2.7 nM | – | > 10000 nM | – | 4.7 nM | 255 nM
Nc1nc(N[C@H](CO)Cc2ccccc2)nc2c1ncn2[C@@H]1C[C@H](n2ncc3ccccc32)[C@@H](O)[C@H]1O | 5410 nM | – | – | – | – | – | – | – | –
Nc1nc(N[C@H](CO)Cc2ccccc2)nc2c1ncn2[C@@H]1C[C@H](n2cccn2)[C@@H](O)[C@H]1O | 702 nM | – | – | – | – | – | – | – | –
Nc1nc(N[C@H](CO)Cc2ccccc2)nc2c1ncn2[C@@H]1C[C@H](n2ccccc2=O)[C@@H](O)[C@H]1O | 5490 nM | – | – | – | – | – | – | – | –

Further molecules by falling Ki (Adenosine receptor A2a [1]), results first:

Ki (Adenosine receptor A2a [1]) | EC50 (Adenosine receptor A1) | EC50 (Adenosine receptor A3) | IC50 (Adenosine receptor A2a [2]) | Activity [3] | EC50 (Adenosine receptor A2b) | Activity [4] | SMILES | IC50 (PBMC [5]) | IC50 (PBMC [6])
146 nM | – | – | – | – | – | – | CCc1cnn([C@H]2C[C@@H](n3cnc4c(NCC(c5ccccc5)c5ccccc5)nc(NCCc5cn(CC)cn5)nc43)[C@H](O)[C@@H]2O)c1 | – | –
97 nM | – | – | – | – | – | – | CCC(=O)N[C@H]1C[C@@H](n2cnc3c(NCC(c4ccccc4)c4ccccc4)nc(NCCc4cn(CC(=O)O)cn4)nc32)[C@H](O)[C@@H]1O | – | –
39 nM | – | – | 160 nM | – | – | – | CCCC(=O)N[C@H]1C[C@@H](n2cnc3c(NCC(c4ccccc4)c4ccccc4)nc(NCCc4cn(C(C)C)cn4)nc32)[C@H](O)[C@@H]1O | – | –
27 nM | – | – | 67 nM | – | – | – | CC(C)C(=O)N[C@H]1C[C@@H](n2cnc3c(NCC(c4ccccc4)c4ccccc4)nc(NCCc4cn(C(C)C)cn4)nc32)[C@H](O)[C@@H]1O | – | –
16 nM | > 10000 nM | 357 nM | 60 nM | – | – | > 50% | CC(C)n1cnc(CCNc2nc(NCC(c3ccccc3)c3ccccc3)c3ncn([C@@H]4C[C@H](NC(=O)C5CC5)[C@@H](O)[C@H]4O)c3n2)c1 | – | –
8 nM | > 10000 nM | 2520 nM | 8.3 nM | – | – | – | CCC(=O)N[C@H]1C[C@@H](n2cnc3c(NC(CC)CC)nc(NCCc4cn(C(C)C)cn4)nc32)[C@H](O)[C@@H]1O | 5.9 nM | 458 nM
7.9 nM | > 10000 nM | 480 nM | 40 nM | 48% | – | – | CC(C)n1cnc(CCNc2nc(NCC(c3ccccc3)c3ccccc3)c3ncn([C@@H]4C[C@H](NC(=O)C5CCC5)[C@@H](O)[C@H]4O)c3n2)c1 | – | –
5.4 nM | 4100 nM | 789 nM | 5.3 nM | – | > 10000 nM | > 50% | CCC(CC)CNc1nc(NCCc2cn(CC)cn2)nc2c1ncn2[C@@H]1C[C@H](n2cc(CO)cn2)[C@@H](O)[C@H]1O | 21 nM | 3590 nM
5.2 nM | > 10000 nM | 139 nM | 5.9 nM | – | > 10000 nM | – | CCC(=O)N[C@H]1C[C@@H](n2cnc3c(NCC(c4ccccc4)c4ccccc4)nc(NCCc4c[nH]cn4)nc32)[C@H](O)[C@@H]1O | – | –
5.2 nM | – | 44 nM | 5 nM | – | – | – | CCC(=O)N[C@H]1C[C@@H](n2cnc3c(NCC(c4ccccc4)c4ccccc4)nc(NCCc4cn(CC)cn4)nc32)[C@H](O)[C@@H]1O | – | –
4.6 nM | > 10000 nM | 42 nM | 4.7 nM | – | – | – | CCC(=O)N[C@H]1C[C@@H](n2cnc3c(NCC(c4ccccc4)c4ccccc4)nc(NCCc4cn(C)cn4)nc32)[C@H](O)[C@@H]1O | – | –

Reference: ChEMBL document CHEMBL1158518, “Synthesis and evaluation of two series of 4'-aza-carbocyclic nucleosides as adenosine A2A receptor agonists” (Bioorg Med Chem Lett, 2010)
